Type in all cases: cell-based
One experiment relates to Alternaria alternata. Put plainly: Minimum inhibitory concentration and synergistic index (Kull). The following applies: for QA: amount of DBDCB used on its own that suppresses growth. The source says: (§1) [formula] • where: • Qa=the amount of component A in the active substance mixture which achieves the desired effect, i.e. no microbial growth, • QA=the amount of component A which, when used on its own, suppresses the growth of the microorganisms, • Qb=the amount of component B in the active substance mixture which achieves the desired effect, i.e. no microbial growth, • and • QB=the amount of component B which, when used on its own, suppresses the growth of the microorganisms.
(§2) A synergistic index obtained according to the above formula of SI<1 indicates a synergistic effect for the active substance mixture.
(§3) Using various test pathogens, the minimum inhibitory concentration was determined and, on the basis thereof with the aid of the formula by F. C. Kull et al., the synergistic effects of the listed compositions according to the invention were calculated.

The subject of the next experiment is Pseudomonas aeruginosa. The description is as above. Conditions: for QA: amount of DBDCB used on its own that suppresses growth.
Description: as §1, §2, §3

The next experiment concerns Geotrichum candidum. Described as above. The following applies: Table 3.
Description: as §1, §2, §3

The test system of another experiment is Staphylococcus aureus. The description is as above. Conditions: Table 1.
Description: as §1, §2, §3

For experiment [1], the system named is Yeasts: Candida albicans and Rhodotorula rubra. Put plainly: Microbiological load test, preservation of a dishwashing liquid: yeasts. Conditions: Y = yeasts, 1 week after pathogen addition, biocide added [wt %]: A DBDCB 0.05, B salicylic acid 0.02, C DBDCB 0.02 and salicylic acid 0.016. From the text:
(§4) The preserving effect of an inventive composition comprising DBDCB and Salix alba extract in a dishwashing liquid was investigated using a microbiological load test. The microbiological load test examines the susceptibility of water-based products to microbial attack and the effect of preservatives. To this end, the preservatives are incorporated in defined concentrations into the water-based systems. […] With knowledge of the microorganism populations prevalent in detergents of the type described here, the experiment employed a mixture of the following microorganism species for testing: Yeasts: Candida albicans and Rhodotorula rubra. […] The activity is deemed poor when, compared to the unpreserved sample, no reduction or only a minor reduction of the microbe level is observed (residual level of at least 10^5 bacteria/10^4 mold cells/yeast cells per g) (score of 0=poor). The following compositions were used in the experiments depicted in table 10: • A: DBDCB • B: […]

For the next experiment, the system named is Bacillus subtilis. Put plainly: Minimum inhibitory concentration and synergistic index (Kull). The following applies: Table 8.
Description: as §1, §2, §3

For the next experiment, the system named is Aspergillus brasiliensis. Described as above. The following applies: Table 9.
Description: as §1, §2, §3

Experiment [2] relates to Molds: Acremonium strictum, Aspergillus niger and Geotrichum candidum. Put plainly: Microbiological load test, preservation of a dishwashing liquid: molds. Conditions: M = molds, 1 week after pathogen addition, biocide added [wt %]: A DBDCB 0.05, B salicylic acid 0.02, C DBDCB 0.02 and salicylic acid 0.016.
Description: as §4, with “Molds: Acremonium strictum, Aspergillus niger” for “Yeasts: Candida albicans”, “Geotrichum candidum.” for “Rhodotorula rubra.”

In experiment [3] the test system is Bacteria: Escherichia coil, Pseudomonas aeruginosa, Staphylococcus aureus, Pseudomonas putida, Enterobacter gergoviae. Put plainly: Microbiological load test, preservation of a dishwashing liquid: bacteria. Conditions: B = bacteria, 1 week after pathogen addition, biocide added [wt %]: A DBDCB 0.05, B salicylic acid 0.02, C DBDCB 0.02 and salicylic acid 0.016.
Description: as §4, with “Bacteria: Escherichia coil, Pseudomonas aeruginosa, Staphylococcus aureus, Pseudomonas putida, Enterobacter gergoviae” for “Yeasts: Candida albicans and Rhodotorula rubra.”

The mark [4] stands for this setting: amount of citric acid used on its own that suppresses growth.
Where [5] appears, read: amount of DBDCB used on its own that suppresses growth.
Setting [6] is: amount of benzoic acid used on its own that suppresses growth.

For `O=C(O)c1ccccc1O` [salicylic acid], the QB in the experiment with Alternaria alternata (amount of salicylic acid used on its own that suppresses growth, Table 7) was determined as 500 ppm; in the experiment on Pseudomonas aeruginosa (amount of salicylic acid used on its own that suppresses growth, Table 6), 3001 ppm.
Take `O=C(O)CC(O)(CC(=O)O)C(=O)O` [citric acid]: the QB in the experiment on Geotrichum candidum (setting [4]) is 3001 ppm; in the experiment on Alternaria alternata (amount of citric acid used on its own that suppresses growth, Table 2), 3001 ppm; in the experiment on Staphylococcus aureus (setting [4]), 3001 ppm.
Regarding `N#CCCC(Br)(C#N)CBr` (stereo not drawn) [DBDCB, 1,2-dibromo-2,4-dicyanobutane], in experiment [1] (week 1), the “Activity of the biocides in a dishwashing liquid, yeasts, Week 1” value is reported as 3 (3 = very good activity). For the same molecule, the “Activity of the biocides in a dishwashing liquid, yeasts, Week 2” value in experiment [1] (week 2) is given as 3 (3 = very good activity). In experiment [1] (week 3), the “Activity of the biocides in a dishwashing liquid, yeasts, Week 3” value is given as 0 (0 = poor activity). For the same molecule, the “Activity of the biocides in a dishwashing liquid, yeasts, Week 4” value in [1] (week 4) is 0 (0 = poor activity). Moreover, the “Activity of the biocides in a dishwashing liquid, yeasts, Week 5” value in [1] (week 5) was 0 (0 = poor activity). Moreover, in experiment [1] (week 6), the “Activity of the biocides in a dishwashing liquid, yeasts, Week 6” value is listed as 0 (0 = poor activity). In addition, the QA in the experiment with Bacillus subtilis (setting [5]) came out at 25 ppm; in the experiment on Geotrichum candidum (setting [5]), 100 ppm; in the experiment with Alternaria alternata (Table 2), 25 ppm; with Alternaria alternata (Table 5), 25 ppm; in the experiment with Alternaria alternata (Table 7), 25 ppm; with Pseudomonas aeruginosa (Table 4) it was 500 ppm. For the same molecule, the results for the QA with Pseudomonas aeruginosa (Table 6), with Aspergillus brasiliensis (setting [5]) and with Staphylococcus aureus (setting [5]) were 250 ppm, 250 ppm and 50 ppm, respectively. Besides, in experiment [2] (week 1), the “Activity of the biocides in a dishwashing liquid, molds, Week 1” value is listed as 3 (3 = very good activity). Further, the “Activity of the biocides in a dishwashing liquid, molds, Week 2” value in experiment [2] (week 2) is 3 (3 = very good activity). In experiment [2] (week 3), the “Activity of the biocides in a dishwashing liquid, molds, Week 3” value is 0 (0 = poor activity). Moreover, the “Activity of the biocides in a dishwashing liquid, molds, Week 4” value in [2] (week 4) is 0 (0 = poor activity). Also, the “Activity of the biocides in a dishwashing liquid, molds, Week 5” value in [2] (week 5) is 0 (0 = poor activity). For the same molecule, in experiment [2] (week 6), the “Activity of the biocides in a dishwashing liquid, molds, Week 6” value is given as 0 (0 = poor activity). Moreover, the “Activity of the biocides in a dishwashing liquid, bacteria, Week 1” value in experiment [3] (week 1) was 1 (1 = fair activity). Also, in experiment [3] (week 2), the “Activity of the biocides in a dishwashing liquid, bacteria, Week 2” value is given as 0 (0 = poor activity). The “Activity of the biocides in a dishwashing liquid, bacteria, Week 3” value in experiment [3] (week 3) is 0 (0 = poor activity). For the same molecule, the “Activity of the biocides in a dishwashing liquid, bacteria, Week 4” value in experiment [3] (week 4) was 0 (0 = poor activity). Also, the “Activity of the biocides in a dishwashing liquid, bacteria, Week 5” value in experiment [3] (week 5) is 0 (0 = poor activity). In addition, the “Activity of the biocides in a dishwashing liquid, bacteria, Week 6” value in experiment [3] (week 6) is recorded as 0 (0 = poor activity).
`O=C(O)c1ccccc1` [benzoic acid]: the QB in the experiment on Bacillus subtilis (setting [6]) is 3000 ppm; in the experiment with Aspergillus brasiliensis (setting [6]), 1000 ppm.
For `CC(O)C(=O)O` (stereo not drawn) [lactic acid], the QB is reported as 3001 ppm in the experiment with Alternaria alternata (amount of lactic acid used on its own that suppresses growth, Table 5) and 3001 ppm in the experiment with Pseudomonas aeruginosa (amount of lactic acid used on its own that suppresses growth, Table 4).
